Laboratory results: patent USRE38257E1, “Piperdine derivatives and hypotensives containing the same” (Ajinomoto Co., Inc., priority 1988, dated 2003)

Tested on: male spontaneously hypertensive rats
Assay: Decrease in systolic blood pressure in spontaneously hypertensive rats after intravenous bolus injection, indirect (tail-cuff) method
Assay type: in vivo, rat
Conditions: for Decrease in systolic blood pressure (mmHg) time after administration (hour) 0.5: 0.5 hour after administration; for Decrease in systolic blood pressure (mmHg) time after administration (hour) 4: 4 hours after administration
Description: As test animals, four male spontaneously hypertensive rats (weight 400 to 440 g) that were sufficiently adapted for feeding and in which hypertension was confirmed were used.
Physiological saline aqueous solution containing 2.5% Nicolle and 2.5% ethanol of sample was intravenously administered by bolus injection at a dose of 1 ml per 1 kg of body weight. Systolic blood pressure after administration was measured by the indirect (tail-cuff) method.

| SMILES | Decrease in systolic blood pressure (mmHg) time after administration (hour) 0.5 (dose 10 mg/kg i.v. bolus) [mmHg] | Decrease in systolic blood pressure (mmHg) time after administration (hour) 4 (dose 10 mg/kg i.v. bolus) [mmHg] | further results |
| --- | --- | --- | --- |
| CN1CCCC(CCCCN2CCC(=C3c4ccccc4C=Cc4ccccc43)CC2)C1.Cl.Cl (stereo not shown) [Example 295, 4-(4-(5H-Dibenzo[a,d]cyclohepten-5-ylidene)-1-piperidinyl)-1-(N-methyl-3-piperidinyl)butane dihydrochloride] |  |  | Decrease in systolic blood pressure (mmHg) time after administration (hour) 0.5 (dose 3 mg/kg i.v. bolus): −36 mmHg; Decrease in systolic blood pressure (mmHg) time after administration (hour) 4 (dose 3 mg/kg i.v. bolus): 1 mmHg |
| Cl.OC1CCC(CCCCN2CCC(=C3c4ccccc4C=Cc4ccccc43)CC2)CC1 (stereo not shown) [Example 296, 1-(1-(4-Hydroxy)cyclohexyl)-4-(4-(5H-dibenzo[a,d]cyclohepten-5-ylidene)-1-piperidinyl)butane hydrochloride] | −109 | −14 |  |
| Cl.N#CC1CCC(CCCCN2CCC(=C3c4ccccc4C=Cc4ccccc43)CC2)CC1 (stereo not shown) [Example 297, 1-(1-(4-Cyano)cyclohexyl)-4-(4-(5H-Dibenzo[a,d]cyclohepten-5-ylidene)-1-piperidinyl)butane hydrochloride] | −129 | −57 |  |
| COc1ccccc1CCCN1CCC(=C2c3ccccc3C=Cc3ccccc32)CC1.Cl [Example 298, 3-(4-(5H-Dibenzo[a,d]cyclohepten-5-ylidene)-1-piperidinyl)-1-(2-methoxyphenyl)propane hydrochloride] | −111 | −31 |  |
| COC1CCCC(CCCCN2CCC(=C3c4ccccc4C=Cc4ccccc43)CC2)C1.Cl (stereo not shown) [Example 299, 1-(1-(3-Methoxy)cyclohexyl)-4-(4-(5H-dibenzo[a,d]cyclohepten-5-ylidene)-1-piperidinyl)butane hydrochloride] | −134 | −45 |  |
| Cl.OC1CCCC(CCCCN2CCC(=C3c4ccccc4C=Cc4ccccc43)CC2)C1 (stereo not shown) [Example 300, 1-(1-(3-Hydroxyoxy)cyclohexyl)-4-(4-(5H-dibenzo[a,d]cyclohepten-5-ylidene)-1-piperidinyl)butane hydrochloride] | −97 | −22 |  |
| Cl.O=C1CCCC(CCCCN2CCC(=C3c4ccccc4C=Cc4ccccc43)CC2)C1 (stereo not shown) [Example 301, 3-(4-(4-(5H-Dibenzo[a,d]cyclohepten-5-ylidene)-1-piperidinyl)-1-butyl)cyclohexanoe hydrochloride] | −100 | −12 |  |
| Cl.O=[N+]([O-])c1ccccc1C=CCN1CCC(=C2c3ccccc3C=Cc3ccccc32)CC1 [Example 302, 4-(5H-Dibenzo[a,d]cyclohepten-5-ylidene)-1-(2-nitrocinnamyl)piperidinyl hydrochloride] | −83 | −41 |  |
| Cl.Nc1ccccc1C=CCN1CCC(=C2c3ccccc3C=Cc3ccccc32)CC1 [Example 303, 1-(2-Aminocinnamyl)-4-(5H-dibenzo[a,d]cyclohepten-5-ylidene)-1-piperidine hydrochloride] |  |  | Decrease in systolic blood pressure (mmHg) time after administration (hour) 0.5 (dose 3 mg/kg i.v. bolus): −90 mmHg; Decrease in systolic blood pressure (mmHg) time after administration (hour) 4 (dose 3 mg/kg i.v. bolus): −19 mmHg |
| CC(=O)Nc1ccccc1C=CCN1CCC(=C2c3ccccc3C=Cc3ccccc32)CC1.Cl [Example 304, 1-(2-Acetylaminocinnamyl)-4-(5H-dibenzo[a,d]cyclohepten-5-ylidene)-1-piperidine hydrochloride] | −49 | −5 |  |
| C1=Cc2ccccc2C(=C2CCN(CCCCC3CCOCC3)CC2)c2ccccc21.Cl [Example 305, 4-(4-(4-(5H-Dibenzo[a,d]cyclohepten-5-ylidene)-1-piperidinyl)-1-butyl)tetrahydropyran hydrochloride] | −95 | −9 |  |
| Cl.O=[N+]([O-])c1cccc(C=CCN2CCC(=C3c4ccccc4C=Cc4ccccc43)CC2)c1 [Example 306, 4-(5H-Dibenzo[a,d]cyclohepten-5-ylidene)-1-(3-nitrocinnamyl)piperidine hydrochloride] | −138 | −37 |  |
| C1=Cc2ccccc2C(=C2CCN(CCCC3CCCCN3)CC2)c2ccccc21.Cl.Cl (stereo not shown) [Example 307, 3-(4-(5H-Dibenzo[a,d]cyclohepten-5-ylidene)-1-piperidinyl)-1-(2-piperidinyl)propane dihydrochloride] | −62 | −20 |  |
| CC(=O)N1CCC(CCCN2CCC(=C3c4ccccc4C=Cc4ccccc43)CC2)CC1.Cl [Example 308, 1-(N-acetyl-4-piperidinyl)-3-(4-(5H-dibenzo[a,d]cyclohepten-5-ylidene)-1-piperidinyl)propane hydrochloride] |  |  | Decrease in systolic blood pressure (mmHg) time after administration (hour) 0.5 (dose 3 mg/kg i.v. bolus): −27 mmHg; Decrease in systolic blood pressure (mmHg) time after administration (hour) 4 (dose 3 mg/kg i.v. bolus): −5 mmHg |
| C1=Cc2ccccc2C(=C2CCN(CCC3Cc4ccccc4C3)CC2)c2ccccc21.Cl [Example 310, 2-(2-(4-(5H-Dibenzo[a,d]cyclohepten-5-ylidene)-1-piperidinyl)-1-ethyl)indane hydrochloride] | −90 | −18 |  |
| CCOC(=O)N1CCCC(CCCCN2CCC(=C3c4ccccc4C=Cc4ccccc43)CC2)C1.Cl (stereo not shown) [Example 312, 4-(4-(5H-Dibenzo[a,d]cyclohepten-5-ylidene)-1-piperidinyl)-1-(N-ethoxycarbonyl-3-piperidinyl)butane hydrochloride] | −115 | −11 |  |
| COC(=O)C1(CCCCCN2CCC(=C3c4ccccc4C=Cc4ccccc43)CC2)CCCCC1.Cl [Example 313, 1-(5-(4-(5H-Dibenzo[a,d]cyclohepten-5-ylidene)-1-piperidinyl)-1-pentyl)-1-methoxycarbonylcyclohexane hydrochloride] | −154 | −85 |  |
| COC(=O)C1(CCCN2CCC(=C3c4ccccc4C=Cc4ccccc43)CC2)CCCCC1.Cl [Example 314, 1-(3-(4-(5H-Dibenzo[a,d]cyclohepten-5-ylidene)-1-piperidinyl)-1-propyl)-1-methoxycarbonylcyclohexane hydrochloride] | −61 | −11 |  |
| Cl.Cl.Nc1cccc(CCCN2CCC(=C3c4ccccc4C=Cc4ccccc43)CC2)c1 [Example 315, 1-(3-Aminophenyl)-3-(4-(5H-dibenzo[a,d]cyclohepten-5-ylidene)-1-piperidinyl)propane dihydrochloride] | −43 | −3 |  |
| CC(=O)Nc1cccc(CCCN2CCC(=C3c4ccccc4C=Cc4ccccc43)CC2)c1.Cl [Example 316, 1-(3-Acetylaminophenyl)-3-(4-(5H-dibenzo[a,d]cyclohepten-5-ylidene)-1-piperidinyl)propane hydrochloride] |  |  | Decrease in systolic blood pressure (mmHg) time after administration (hour) 0.5 (dose 1 mg/kg i.v. bolus): −100 mmHg; Decrease in systolic blood pressure (mmHg) time after administration (hour) 4 (dose 1 mg/kg i.v. bolus): 8 mmHg |
| COc1cc(CCCN2CCC(=C3c4ccccc4C=Cc4ccccc43)CC2)cc(OC)c1OC.Cl.Cl [Example 317, 3-(4-(5H-Dibenzo[a,d]cyclohepten-5-ylidene)-1-piperidinyl)-1-(3,4,5-trimethoxyphenyl)propane dihydrochloride] | −118 | −14 |  |
| COc1ccc2c(c1OC)CCC(CCN1CCC(=C3c4ccccc4C=Cc4ccccc43)CC1)C2.Cl (stereo not shown) [Example 318, 2-(3-(4-(5H-Dibenzo[a,d]cyclohepten-5-ylidene)-1-piperidinyl)-1-ethyl)-5,6-dimethoxy-1,2,34-tetrahydronaphthalene hydrochloride] | −83 | −57 |  |
| COC1=C(OC)CC2=CC=CC(CN3CCC(=C4c5ccccc5C=Cc5ccccc54)CC3)=CC2=C1.Cl [Example 319, 6-(4-(5H-Dibenzo[a,d]cyclohepten-5-ylidene)-1-piperidinyl)methyl-2,3-dimethoxybenzocycloheptene hydrochloride] | −104 | −20 |  |
